# Results as given in patent US8318792B2, “Therapeutic agent for amyotrophic lateral sclerosis” (Nippon Medical School Foundation, priority 2006, dated 2012).
# How the values were obtained:
# G1H-G93A transgenic mice [1] = test: Clinical symptomatological evaluation (day of onset, survival period, disease period, stage periods); format: in vivo, mouse; conditions: for day of onset / disease period / survival period / time period of clinical symptomatological stage 1 / time period of clinical symptomatological stage 2 / time period of clinical symptomatological stage 3 / time period of clinical symptomatological stage 4 / time period of clinical symptomatological stage 5: average±SD
# Method: 1) The procedure of concentration adjustment, and the amount and the procedure of administration of the compound (a) were as described below. As a base, 0.5% methylcellulose is prepared. 5 mg of the compound (a) is pulverized in an agate mortar, and then a small amount of 0.5% methylcellulose is added to form a complete suspension. Subsequently, a small amount of 0.5% methylcellulose is added gradually, so that finally 5 mg of the compound (a) is suspended in 10 mL of 0.5% methylcellulose. A sample of 5 mg of compound (a)/10 mL of 0.5% methylcellulose (5 mg/10 mL) was prepared by the above-described procedure, and thus the compound (a) was orally administered once a day in a dose of 5 mg per kg of the mouse body weight (5 mg/kg).
# As the experimental animal, male transgenic mice over-expressing a high copy number (25 copies) of mutated human SOD1 gene with a G93A point mutation, i.e., B6SJL-TgN [SOD1-G93A]1Gur (G1H-G93A transgenic mice, JR2726; Hemizygote) (Gurney M E, et al., Science, 264, 1772-1775, 1994), were purchased from Jackson Laboratory (Bar Harbor, USA) and used. At the same time, wild-type male mice from the same litter, B6SJL-TgN[SOD1-G93A]1Gur (Wild-type), were also purchased from Jackson Laboratory and used.
# The mice were subjected to a clinical symptomatological evaluation everyday. The clinical symptomatological evaluation was performed from one week after the arrival from Jackson Laboratory. […] The day of onset, the survival period and the disease period were indicated by the number of days. In regard to the indication of the number of days of the disease period, one day (one disease day) corresponds to within 24 hours from the onset (the “onset” is determined by the observation of the clinical symptomatological evaluation stage 1), and two days (two disease days) corresponds to more than 24 hours after and within 48 hours from the onset. Subsequent disease days after the onset were determined in the same manner.
# The mice were divided into seven experimental groups, to which a placebo, the compound (a), compound (b), compound (c) or allopurinol was administered. That is, the seven groups consist of: an experimental group administered with placebo; a treatment experimental group administered with compound (a) before onset; a treatment experimental group administered with compound (a) after onset; a treatment experimental group administered with compound (b) before onset; a treatment experimental group administered with compound (c) before onset; a treatment experimental group administered with compound (c) after onset; and a treatment group administered with allopurinol before onset. Details of the respective groups will be described in the following.
# Ten G1H-G93A transgenic mice were used. From the 80th day after birth, 5 mg/kg of the compound (a) was orally administered everyday. […]
# Ten G1H-G93A transgenic mice were used. From the 80th day after birth, 5 mg/kg of the compound (b) was orally administered everyday.
# Ten G1H-G93A transgenic mice were used. From the 80th day after birth, 5 mg/kg of the compound (c) was orally administered everyday. […]
# Ten G1H-G93A transgenic mice were used. From the 80th day after birth, 5 mg/kg of allopurinol was orally administered everyday.
# In regard to the results of the clinical symptomatological evaluation, the day of onset, the survival period (days taken to show quadriplegia and to reach the moribund state), the disease period (days taken to show quadriplegia and to reach the moribund state, from the day of onset), and the time periods for the respective stages of the clinical symptomatological evaluation, were indicated by the average±standard deviation. In regard to the results of the exercise tolerance test, the score values of the respective exercise tolerance tests, including the extension reflex test, inclined plane test, footprint test, rotarod test and beam balance test, were indicated by the average±standard deviation. […]
# G1H-G93A transgenic mice [2] = test: Exercise tolerance test: rotarod test; format: in vivo, mouse; conditions: for Rotarod test score: 5 mg/kg oral daily from 80th day (before onset), score 0-3
# Method: The following five kinds of exercise tolerance tests were conducted every fifth day from the 70th day after birth to evaluate the ability to exercise in the respective exercise tolerance tests. That is, the days for the exercise tolerance tests were every fifth days, such as the 70th day, 75th day, 80th day, 85th day and so on, after birth. The exercise tolerance tests were conducted throughout the survival period, and the post-mortem evaluation was based on the definitions of the following five kinds of exercise tolerance tests.
# The apparatus used in the Rotarod test (Rota Rod Treadmill type 7600, Ugo Basile Co., Milano, Italy) is a rotating axle having a diameter of 3.6 cm, and this rotating axle is set up so as to have 16 revolution per minute (one rotation: 3.75 seconds). The period for which a mouse can remain on a rotating axle without falling is measured. The evaluation of the rotarod test for the mouse was performed based on the following criteria: Score 0=The time exceeds 60 seconds; Score 1=The time is more than 30 seconds and 60 seconds or less; Score 2=The time is more than 4 seconds and 30 seconds or less; and Score 3=The time is 4 seconds or less. The post-mortem evaluation of the rotarod test is defined as score 3.
# [3] = 5 mg/kg oral daily from 80th day after birth (before onset), Mann-Whitney's U test, log-rank test
# [4] = 5 mg/kg oral daily from the day of onset (after onset), Mann-Whitney's U test, log-rank test
# [5] = 5 mg/kg oral once a day from 80th day after birth (before onset)
# [6] = 5 mg/kg oral once a day from the onset (after onset)
structure (smiles),measurement,setting,value
"Cc1nc(-c2ccc(OCC(C)C)c(C#N)c2)sc1C(=O)O [compound (c), 2-[3-cyano-4-(2-methylpropoxy)phenyl]-4-methyl-5-thiazolecarboxylic acid]",time periods for the respective stages in comparison to placebo group,"G1H-G93A transgenic mice [1]; 5 mg/kg oral daily from 80th day after birth (before onset), Mann-Whitney's U test",extended period of the respective stages with significant difference
same,disease period extending effect in comparison to placebo group,G1H-G93A transgenic mice [1]; [3],significant extension of the disease period
same,onset delaying effect in comparison to placebo group,G1H-G93A transgenic mice [1]; [3],significant delaying of the day of onset
same,survival period extending effect in comparison to placebo group,G1H-G93A transgenic mice [1]; [3],significant extension of the survival period
same,time periods for the respective stages in comparison to placebo group,"G1H-G93A transgenic mice [1]; 5 mg/kg oral daily from the day of onset (after onset), Mann-Whitney's U test","extended period of stage 3 (P<0.05, Mann-Whitney's U test) and stage 4 (P<0.05, Mann-Whitney's U test) with significant differences"
same,disease period extending effect in comparison to placebo group,G1H-G93A transgenic mice [1]; [4],disease period extending effect
same,survival period extending effect in comparison to placebo group,G1H-G93A transgenic mice [1]; [4],survival period extending effect
same,day of onset,G1H-G93A transgenic mice [1]; [5],112.0 ± 4.6 days
same,disease period,G1H-G93A transgenic mice [1]; [5],25.4 ± 3.2 days
same,survival period,G1H-G93A transgenic mice [1]; [5],136.4 ± 3.3 days
same,time period of clinical symptomatological stage 1,G1H-G93A transgenic mice [1]; [5],7.5±0.9 days
same,time period of clinical symptomatological stage 2,G1H-G93A transgenic mice [1]; [5],6.7±1.2 days
same,time period of clinical symptomatological stage 3,G1H-G93A transgenic mice [1]; [5],5.4±1.1 days
same,time period of clinical symptomatological stage 4,G1H-G93A transgenic mice [1]; [5],3.9±1.1 days
same,time period of clinical symptomatological stage 5,G1H-G93A transgenic mice [1]; [5],1.9±0.3 days
same,day of onset,G1H-G93A transgenic mice [1]; [6],100.7 ± 4.3 days
same,disease period,G1H-G93A transgenic mice [1]; [6],24.2 ± 3.2 days
same,survival period,G1H-G93A transgenic mice [1]; [6],123.9 ± 3.2 days
same,time period of clinical symptomatological stage 1,G1H-G93A transgenic mice [1]; [6],7.6±1.2 days
same,time period of clinical symptomatological stage 2,G1H-G93A transgenic mice [1]; [6],6.2±0.8 days
same,time period of clinical symptomatological stage 3,G1H-G93A transgenic mice [1]; [6],5.4±1.1 days
same,time period of clinical symptomatological stage 4,G1H-G93A transgenic mice [1]; [6],3.5±0.5 days
same,time period of clinical symptomatological stage 5,G1H-G93A transgenic mice [1]; [6],1.5±0.5 days
same,Rotarod test score,"G1H-G93A transgenic mice [2]; 70th day after birth, 5 mg/kg",0.0±0.0
same,Rotarod test score,"G1H-G93A transgenic mice [2]; 75th day after birth, 5 mg/kg",0.0±0.0
same,Rotarod test score,"G1H-G93A transgenic mice [2]; 80th day after birth, 5 mg/kg",0.0±0.0
same,Rotarod test score,"G1H-G93A transgenic mice [2]; 85th day after birth, 5 mg/kg",0.0±0.0
same,Rotarod test score,"G1H-G93A transgenic mice [2]; 90th day after birth, 5 mg/kg",0.0±0.0
same,Rotarod test score,"G1H-G93A transgenic mice [2]; 95th day after birth, 5 mg/kg",0.0±0.0
same,Rotarod test score,"G1H-G93A transgenic mice [2]; 100th day after birth, 5 mg/kg",0.0±0.0
same,Rotarod test score,"G1H-G93A transgenic mice [2]; 105th day after birth, 5 mg/kg",0.0±0.0
same,effect in rotarod test as compared to placebo group,"G1H-G93A transgenic mice [2]; 105th, 110th and 115th day, 5 mg/kg oral daily from 80th day after birth, Mann-Whitney's U test",significant effects
same,Rotarod test score,"G1H-G93A transgenic mice [2]; 110th day after birth, 5 mg/kg",0.4±0.8
same,Rotarod test score,"G1H-G93A transgenic mice [2]; 115th day after birth, 5 mg/kg",1.3±1.3
same,Rotarod test score,"G1H-G93A transgenic mice [2]; 120th day after birth, 5 mg/kg",2.5±0.5
same,Rotarod test score,G1H-G93A transgenic mice [2]; 125th day after birth,3.0 ± 0.0
same,Rotarod test score,G1H-G93A transgenic mice [2]; 130th day after birth,3.0 ± 0.0
same,Rotarod test score,G1H-G93A transgenic mice [2]; 135th day after birth,3.0 ± 0.0
same,Rotarod test score,G1H-G93A transgenic mice [2]; 140th day after birth,3.0 ± 0.0
same,Rotarod test score,G1H-G93A transgenic mice [2]; from the 125th day to 140th day after birth,3.0±0.0
